Our source for the IC50 values is patent publication US8742110B2, “Spiroxazolidinone compounds” (Merck Sharp & Dohme Corp., priority 2010, dated 2014).

A word on the IC50: it is the point on the concentration scale where inhibition reaches its midpoint. Low readings indicate greater potency in that assay, high ones weaker potency in that assay.

Counter-ions that a name gives are not always drawn.

For this assay, the target named is SSTR5 (Homo sapiens (Human), UniProt P35346). Briefly: SSTR5 binding assay. Conditions: CHO-K1 membranes expressing cloned human SSTR5. The procedure: The receptor-ligand binding assays of all 5 subtype of SSTRs were performed with membranes isolated from Chinese hamster ovary (CHO)-K1 cells stably expressing the cloned human somatostatin receptors in 96-well format as previous reported.
Sequence of SSTR5 (P35346 whole entry): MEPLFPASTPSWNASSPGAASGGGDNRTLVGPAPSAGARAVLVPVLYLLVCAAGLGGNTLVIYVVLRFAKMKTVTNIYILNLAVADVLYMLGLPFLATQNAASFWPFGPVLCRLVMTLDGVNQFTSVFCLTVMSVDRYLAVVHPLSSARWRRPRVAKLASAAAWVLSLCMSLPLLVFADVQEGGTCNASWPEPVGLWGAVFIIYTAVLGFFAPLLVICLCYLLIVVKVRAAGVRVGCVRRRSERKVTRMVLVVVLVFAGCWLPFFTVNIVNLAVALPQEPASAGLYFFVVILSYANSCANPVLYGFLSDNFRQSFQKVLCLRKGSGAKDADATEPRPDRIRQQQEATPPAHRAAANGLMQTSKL
The stable cell lines for SSTR1-SSTR5 were developed by stably transfecting with DNA for all five SSTRs using Lipofectamine. […] The assay buffer consisted of 50 mM TrisHCl (pH 7.8) with 1 mM EGTA, […] MgCl2, leupeptin (10 μg/mL), pepstatin (10 μg/mL), bacitracin (200 μg/mL), and aprotinin (0.5 μg/mL). CHO-K1 cell membranes, radiolabeled somatostatin, and unlabeled test compounds were resuspended or diluted in this assay buffer. Unlabeled test compounds were examined over a range of concentrations from 0.01 nM to 10,000 nM.
Compounds exemplified were tested in the SSTR5 binding assay.
For `O=C(O)c1ccc(N2CC3(CCN(Cc4nc(C5CC5)oc4-c4ccc(F)c(Cl)c4)CC3)OC2=O)cc1` [Example 6-31, 4-(8-{[5-(3-Chloro-4-fluorophenyl)-2-cyclopropyl-1,3-oxazol-4-yl]methyl}-2-oxo-1-oxa-3,8-diazaspiro[4.5]dec-3-yl)benzoic acid, TFA salt], the IC50 turned out to be 414 nM. `CCOc1cc(CN2CCC3(CC2)CN(c2ccc(C(=O)O)cc2)C(=O)O3)c(-c2cc(F)c(F)cc2F)cc1C` [Example 4-11, 4-{8-[(4-Ethoxy-2′,4′,5′-trifluoro-5-methylbiphenyl-2-yl)methyl]-2-oxo-1-oxa-3,8-diazaspiro[4.5]dec-3-yl}benzoic acid, TFA salt] came in with an IC50 of 0.152 nM. With `CCOc1cc(CN2CCC3(CC2)CN(c2cncc(O)c2)C(=O)O3)cc(OCC)c1-c1ccc(F)cc1` [Example 3-2, 8-[(2,6-Diethoxy-4′-fluorobiphenyl-4-yl)methyl]-3-(5-hydroxypyridin-3-yl)-1-oxa-3,8-diazaspiro[4.5]decan-2-one, TFA salt] the figure was 1.46 nM. To `CCOc1cc(CN2CCC3(CC2)CN(c2ccc(C(=O)O)cc2Cl)C(=O)O3)cc(OCC)c1-c1ccc(F)cc1` [Example 3-19, 3-Chloro-4-{8-[(2,6-diethoxy-4′-fluorobiphenyl-4-yl)methyl]-2-oxo-1-oxa-3,8-diazaspiro[4.5]dec-3-yl}benzoic acid, TFA salt] belongs 0.359 nM.

`CCOc1cc(CN2CCC3(CC2)CN(c2cc(C(=O)O)ccn2)C(=O)O3)cc(OCC)c1-c1ccc(F)cc1` [Example 3-17, 2-{8-[(2,6-Diethoxy-4′-fluorobiphenyl-4-yl)methyl]-2-oxo-1-oxa-3,8-diazaspiro[4.5]dec-3-yl}pyridine-4-carboxylic acid, TFA salt] showed an IC50 of 2.21 nM. Against the preceding compound, the IC50 is about 6.2-fold higher. To `COc1c(-c2cn(C(C)C)nc2CN2CCC3(CC2)CN(c2ccc(C(=O)O)cc2)C(=O)O3)ccc(F)c1F` [Example 2-5, 4-(8-{[4-(3,4-Difluoro-2-methoxyphenyl)-1-(propan-2-yl)-1H-pyrazol-3-yl]methyl}-2-oxo-1-oxa-3,8-diazaspiro[4.5]dec-3-yl)benzoic acid, TFA salt] belongs 191 nM; to `CC(C)(C)n1cc(CN2CCC3(CC2)CN(c2ccc(C(=O)O)cc2)C(=O)O3)c(-c2ccc(F)c(F)c2F)n1` [Example 1-1, 4-(8-{[1-tert-Butyl-3-(2,3,4-trifluorophenyl)-1H-pyrazol-4-yl]methyl}-2-oxo-1-oxa-3,8-diazaspiro[4.5]dec-3-yl)benzoic acid, TFA salt], 2.23 nM. `COc1ccc(-c2nc(C(C)(C)C)sc2CN2CCC3(CC2)CN(c2ccc(C(=O)O)cc2)C(=O)O3)cc1` [Example 6-29, 4-(8-{[2-tert-Butyl-4-(4-methoxyphenyl)-1,3-thiazol-5-yl]methyl}-2-oxo-1-oxa-3,8-diazaspiro[4.5]dec-3-yl)benzoic acid, TFA salt] gave an IC50 of 0.705 nM. With `O=C(O)c1ccc(N2CC3(CCN(Cc4cn(CC(F)(F)F)nc4-c4ccc(F)c(F)c4F)CC3)OC2=O)cc1` [Example 1-41, 4-(2-Oxo-8-{[1-(2,2,2-trifluoroethyl)-3-(2,3,4-trifluorophenyl)-1H-pyrazol-4-yl]methyl}-1-oxa-3,8-diazaspiro[4.5]dec-3-yl)benzoic acid, TFA salt] the figure was 10.4 nM; with `Cc1cc(-c2cc(F)c(F)cc2F)c(CN2CCC3(CC2)CN(c2ccc(C(=O)O)cc2)C(=O)O3)cc1Cl` [Example 4-24, 4-{8-[(4-Chloro-2′,4′,5′-trifluoro-5-methylbiphenyl-2-yl)methyl]-2-oxo-1-oxa-3,8-diazaspiro[4.5]dec-3-yl}benzoic acid, TFA salt], 1.13 nM. With `CC(C)(C)c1nc(-c2cc(F)c(F)cc2F)c(CN2CCC3(CC2)CN(c2ccc(C(=O)O)cc2)C(=O)O3)s1` [Example 6-35, 4-(8-{[2-tert-Butyl-4-(2,4,5-trifluorophenyl)-1,3-thiazol-5-yl]methyl}-2-oxo-1-oxa-3,8-diazaspiro[4.5]dec-3-yl)benzoic acid, TFA salt] the figure was 1.74 nM; with `CCOc1cc(CN2CCC3(CC2)CN(c2ccc(C(=O)O)nc2)C(=O)O3)cc(OCC)c1-c1ccc(F)cc1` [Example 3-4, 5-{8-[(2,6-Diethoxy-4′-fluorobiphenyl-4-yl)methyl]-2-oxo-1-oxa-3,8-diazaspiro[4.5]dec-3-yl}pyridine-2-carboxylic acid, TFA salt], 1.4 nM; with `COc1ccc2c(CN3CCC4(CC3)CN(c3ccc(C(=O)O)cc3)C(=O)O4)c[nH]c2c1` [Example 6-22, 4-{8-[(6-Methoxy-1H-indol-3-yl)methyl]-2-oxo-1-oxa-3,8-diazaspiro[4.5]dec-3-yl}benzoic acid, TFA salt], 8.64 nM. To `O=C(O)c1ccc(N2CC3(CCN(Cc4cc5c(cc4-c4cc(F)c(F)cc4F)CCC5)CC3)OC2=O)cc1` [Example 4-19, 4-(2-Oxo-8-{[6-(2,4,5-trifluorophenyl)-2,3-dihydro-1H-inden-5-yl]methyl}-1-oxa-3,8-diazaspiro[4.5]dec-3-yl)benzoic acid, TFA salt] belongs 0.243 nM. `CCCCn1nc(CN2CCC3(CC2)CN(c2ccc(C(=O)O)cc2)C(=O)O3)c2cc(F)ccc21` [Example 6-4, 4-{8-[(1-Butyl-5-fluoro-1H-indazol-3-yl)methyl]-2-oxo-1-oxa-3,8-diazaspiro[4.5]dec-3-yl}benzoic acid, TFA salt] gave an IC50 of 98.7 nM. Compared with the last compound, the IC50 is about 410-fold higher. To `CC(C)n1nc(CN2CCC3(CC2)CN(c2ccc(C(=O)O)cc2)C(=O)O3)c2ccc(C(N)=O)cc21` [Example 6-8, 4-(8-{[6-Carbamoyl-1-(propan-2-yl)-1H-indazol-3-yl]methyl}-2-oxo-1-oxa-3,8-diazaspiro[4.5]dec-3-yl)benzoic acid, TFA salt] belongs 1200 nM; to `Cn1cc(-c2cc(F)c(F)cc2F)c(CN2CCC3(CC2)CN(c2ccc(C(=O)O)cc2)C(=O)O3)n1` [Example 2-2, 4-(8-{[1-Methyl-4-(2,4,5-trifluorophenyl)-1H-pyrazol-3-yl]methyl}-2-oxo-1-oxa-3,8-diazaspiro[4.5]dec-3-yl)benzoic acid, TFA salt], 4320 nM; to `Cc1nc2ccccn2c1CN1CCC2(CC1)CN(c1ccc(C(=O)O)cc1)C(=O)O2` [Example 6-38, 4-{8-[(2-Methylimidazo[1,2-a]pyridin-3-yl)methyl]-2-oxo-1-oxa-3,8-diazaspiro[4.5]dec-3-yl}benzoic acid, TFA salt], 1010 nM. With `CC(C)n1cc(CN2CCC3(CC2)CN(c2ccc(C(=O)O)cc2)C(=O)O3)c2cc(Br)ccc21` [Example 6-25, 4-(8-{[5-Bromo-1-(propan-2-yl)-1H-indol-3-yl]methyl}-2-oxo-1-oxa-3,8-diazaspiro[4.5]dec-3-yl)benzoic acid, TFA salt] the figure was 0.55 nM; with `CC(C)(C)n1cc(CN2CC3(C2)CN(c2ccc(C(=O)O)cc2)C(=O)O3)c(-c2ccc(F)c(F)c2F)n1` [Example 2-9, 4-(2-{[1-tert-Butyl-3-(2,3,4-trifluorophenyl)-1H-pyrazol-4-yl]methyl}-6-oxo-5-oxa-2,7-diazaspiro[3.4]oct-7-yl)benzoic acid, TFA salt], 14.9 nM; with `CCCn1nc(Cc2cc(F)c(F)cc2F)c(CN2CCC3(CC2)CN(c2ccc(C(=O)O)cc2)C(=O)O3)c1Cl` [Example 1-46, 4-(8-{[5-Chloro-1-propyl-3-(2,4,5-trifluorobenzyl)-1H-pyrazol-4-yl]methyl}-2-oxo-1-oxa-3,8-diazaspiro[4.5]dec-3-yl)benzoic acid, TFA salt], 40.9 nM. With `Cc1cc(CN2CCC3(CC2)CN(c2ccc(C(=O)O)cc2)C(=O)O3)cc2c1OCC2(C)C` [Example 5-1, 4-{2-Oxo-8-[(3,3,7-trimethyl-2,3-dihydro-1-benzofuran-5-yl)methyl]-1-oxa-3,8-diazaspiro[4.5]dec-3-yl}benzoic acid, TFA salt] the figure was 2.38 nM; with `CCOc1cc(CN2CCC3(CC2)CN(c2ccc(C(=O)O)c(F)c2)C(=O)O3)cc(OCC)c1-c1ccc(F)cc1` [Example 3-18, 4-{8-[(2,6-Diethoxy-4′-fluorobiphenyl-4-yl)methyl]-2-oxo-1-oxa-3,8-diazaspiro[4.5]dec-3-yl}-2-fluorobenzoic acid, TFA salt], 1.15 nM; with `CC(C)(C)n1cc(CN2CCC3(CC2)CN(c2ccc(-c4nn[nH]n4)cc2)C(=O)O3)c(-c2cc(F)c(Cl)cc2F)n1` [Example 1-29, 8-{[1-tert-Butyl-3-(4-chloro-2,5-difluorophenyl)-1H-pyrazol-4-yl]methyl}-3-[4-(2H-tetrazol-5-yl)phenyl]-1-oxa-3,8-diazaspiro[4.5]decan-2-one, TFA salt], 0.582 nM. Take `CC(C)(C)n1nc(CN2CCC3(CC2)CN(c2ccc(C(=O)O)cc2)C(=O)O3)c2cc(Cl)c(F)cc21` [Example 6-17, 4-{8-[(1-tert-Butyl-5-chloro-6-fluoro-1H-indazol-3-yl)methyl]-2-oxo-1-oxa-3,8-diazaspiro[4.5]dec-3-yl}benzoic acid, TFA salt]: the IC50 came out at 61.6 nM. With `CCOc1cc(CN2CCC3(CC2)CN(c2cccc(C(=O)O)c2)C(=O)O3)cc(OCC)c1-c1ccc(F)cc1` [Example 3-14, 3-{8-[(2,6-Diethoxy-4′-fluorobiphenyl-4-yl)methyl]-2-oxo-1-oxa-3,8-diazaspiro[4.5]dec-3-yl}benzoic acid, TFA salt] the figure was 9.15 nM; with `CCOc1cc(CN2CCC3(CC2)CN(c2ccc(-c4nn[nH]n4)cc2)C(=O)O3)cc(OCC)c1-c1ccc(F)cc1` [Example 3-12, 8-[(2,6-Diethoxy-4′-fluorobiphenyl-4-yl)methyl]-3-[4-(2H-tetrazol-5-yl)phenyl]-1-oxa-3,8-diazaspiro[4.5]decan-2-one, TFA salt], 0.323 nM.
